Key:
[1] = molecular target: T1, Haspin (h) (substrate histone H3 full length) (Homo sapiens, UniProt Q8TF76); test: Epigenetic enzyme assay, Kinases; type: biochemical; details: read-out: % Inhibition of Control Values
T1 sequence (Q8TF76 1-798): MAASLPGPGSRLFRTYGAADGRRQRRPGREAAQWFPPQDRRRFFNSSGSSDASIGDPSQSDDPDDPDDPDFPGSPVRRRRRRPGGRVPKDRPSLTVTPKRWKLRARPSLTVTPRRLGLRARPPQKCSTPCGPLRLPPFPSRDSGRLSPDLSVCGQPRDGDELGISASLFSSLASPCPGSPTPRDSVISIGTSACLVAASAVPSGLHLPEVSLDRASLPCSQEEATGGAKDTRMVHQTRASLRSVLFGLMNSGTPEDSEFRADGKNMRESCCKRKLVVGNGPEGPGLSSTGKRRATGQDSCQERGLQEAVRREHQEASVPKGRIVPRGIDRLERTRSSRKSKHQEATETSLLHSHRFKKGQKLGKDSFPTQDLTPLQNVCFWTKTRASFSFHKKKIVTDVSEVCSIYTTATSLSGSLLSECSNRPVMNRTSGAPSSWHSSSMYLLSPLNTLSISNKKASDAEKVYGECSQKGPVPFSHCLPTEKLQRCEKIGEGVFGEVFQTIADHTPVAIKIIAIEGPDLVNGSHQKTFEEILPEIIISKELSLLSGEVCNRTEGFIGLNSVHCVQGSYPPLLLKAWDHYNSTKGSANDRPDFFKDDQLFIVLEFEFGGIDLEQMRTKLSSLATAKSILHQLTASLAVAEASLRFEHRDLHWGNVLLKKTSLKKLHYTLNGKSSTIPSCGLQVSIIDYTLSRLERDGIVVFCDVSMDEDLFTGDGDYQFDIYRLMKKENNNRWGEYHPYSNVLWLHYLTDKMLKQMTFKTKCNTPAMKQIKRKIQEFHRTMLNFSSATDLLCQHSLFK

Phospholipase sPLA2-V = molecular target: T2, Phospholipase sPLA2-V (Homo sapiens, UniProt P39877); test: Phospholipase sPLA2-V; type: biochemical; details: assay year 2015, read-out: % Control Response
T2 construct: host or cells: E. coli
T2 sequence (P39877 21-138): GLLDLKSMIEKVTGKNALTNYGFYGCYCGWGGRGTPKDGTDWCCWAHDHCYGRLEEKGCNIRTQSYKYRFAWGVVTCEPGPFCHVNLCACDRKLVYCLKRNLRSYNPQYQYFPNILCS
Method: (§1) The in vitro pharmacological studies were conducted by Eurofins PanLab (Taiwan) using the parameters shown in Table 13 with respect to appropriate literature references.

MYST3(h) = MYST3(h) (Homo sapiens, UniProt Q92794); test: Epigenetic enzyme assay, Histone acetyltransferases (HATs); type: biochemical; details: read-out: % Inhibition of Control Values
Chain of MYST3(h) (Q92794 whole entry): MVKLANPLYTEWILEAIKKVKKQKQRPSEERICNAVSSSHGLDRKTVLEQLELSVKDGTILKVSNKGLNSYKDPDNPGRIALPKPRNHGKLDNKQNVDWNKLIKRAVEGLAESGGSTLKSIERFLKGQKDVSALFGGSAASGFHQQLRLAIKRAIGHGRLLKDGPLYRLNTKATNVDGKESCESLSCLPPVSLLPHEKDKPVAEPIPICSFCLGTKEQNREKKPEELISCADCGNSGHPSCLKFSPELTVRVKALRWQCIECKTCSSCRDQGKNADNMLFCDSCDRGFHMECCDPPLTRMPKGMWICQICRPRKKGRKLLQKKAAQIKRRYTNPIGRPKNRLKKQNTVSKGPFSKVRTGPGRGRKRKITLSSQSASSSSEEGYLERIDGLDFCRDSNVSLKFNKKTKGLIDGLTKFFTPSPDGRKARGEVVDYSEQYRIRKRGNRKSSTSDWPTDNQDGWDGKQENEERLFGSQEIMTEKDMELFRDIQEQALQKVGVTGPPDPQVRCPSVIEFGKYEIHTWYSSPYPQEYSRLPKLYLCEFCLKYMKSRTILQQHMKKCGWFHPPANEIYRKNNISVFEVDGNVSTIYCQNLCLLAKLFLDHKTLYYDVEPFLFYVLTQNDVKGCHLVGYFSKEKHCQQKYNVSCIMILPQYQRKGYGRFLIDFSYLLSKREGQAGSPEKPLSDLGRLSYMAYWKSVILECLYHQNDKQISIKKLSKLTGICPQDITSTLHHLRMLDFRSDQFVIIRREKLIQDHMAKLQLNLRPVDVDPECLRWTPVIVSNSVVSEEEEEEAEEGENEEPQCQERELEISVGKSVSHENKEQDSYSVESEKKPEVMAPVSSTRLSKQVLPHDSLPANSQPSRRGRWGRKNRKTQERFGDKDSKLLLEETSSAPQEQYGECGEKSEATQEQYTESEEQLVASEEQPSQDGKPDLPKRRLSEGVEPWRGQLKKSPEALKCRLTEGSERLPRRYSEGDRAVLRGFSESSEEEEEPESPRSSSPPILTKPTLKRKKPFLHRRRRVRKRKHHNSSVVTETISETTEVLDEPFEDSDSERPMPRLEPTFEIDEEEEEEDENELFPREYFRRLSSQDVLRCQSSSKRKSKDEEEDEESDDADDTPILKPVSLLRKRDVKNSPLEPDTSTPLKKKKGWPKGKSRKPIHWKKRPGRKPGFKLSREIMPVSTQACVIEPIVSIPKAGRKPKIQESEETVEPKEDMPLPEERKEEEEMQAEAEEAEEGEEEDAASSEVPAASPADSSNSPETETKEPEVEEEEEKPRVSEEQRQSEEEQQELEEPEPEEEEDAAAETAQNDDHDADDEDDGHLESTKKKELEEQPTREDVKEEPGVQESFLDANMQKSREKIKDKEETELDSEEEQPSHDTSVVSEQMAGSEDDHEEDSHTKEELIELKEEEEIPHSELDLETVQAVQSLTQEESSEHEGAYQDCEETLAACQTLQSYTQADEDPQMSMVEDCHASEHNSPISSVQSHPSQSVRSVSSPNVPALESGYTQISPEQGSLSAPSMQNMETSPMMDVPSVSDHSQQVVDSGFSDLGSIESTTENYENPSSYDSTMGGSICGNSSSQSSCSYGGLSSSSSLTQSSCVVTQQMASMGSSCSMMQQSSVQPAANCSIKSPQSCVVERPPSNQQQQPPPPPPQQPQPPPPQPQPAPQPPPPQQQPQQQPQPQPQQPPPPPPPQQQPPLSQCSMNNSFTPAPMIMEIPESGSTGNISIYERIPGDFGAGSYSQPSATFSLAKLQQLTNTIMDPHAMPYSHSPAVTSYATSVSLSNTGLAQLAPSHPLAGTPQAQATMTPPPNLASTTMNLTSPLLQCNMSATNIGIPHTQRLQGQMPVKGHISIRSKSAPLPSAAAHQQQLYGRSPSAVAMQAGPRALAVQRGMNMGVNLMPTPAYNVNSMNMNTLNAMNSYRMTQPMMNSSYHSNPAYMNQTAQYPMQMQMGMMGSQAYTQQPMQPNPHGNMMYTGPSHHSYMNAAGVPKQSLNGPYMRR

NF-κB = test: Transcription Response, NF-κB; type: cell-based, Human
Method: as §1

SUV39H2 (h) = SUV39H2 (h) (Homo sapiens, UniProt Q9H5I1); test: Epigenetic enzyme assay, Methyltransferases (MTs); type: biochemical; details: for inhibition at 10 µM: read-out: % Inhibition of Control Values
Chain of SUV39H2 (h) (Q9H5I1 whole entry, the tested form may be a part): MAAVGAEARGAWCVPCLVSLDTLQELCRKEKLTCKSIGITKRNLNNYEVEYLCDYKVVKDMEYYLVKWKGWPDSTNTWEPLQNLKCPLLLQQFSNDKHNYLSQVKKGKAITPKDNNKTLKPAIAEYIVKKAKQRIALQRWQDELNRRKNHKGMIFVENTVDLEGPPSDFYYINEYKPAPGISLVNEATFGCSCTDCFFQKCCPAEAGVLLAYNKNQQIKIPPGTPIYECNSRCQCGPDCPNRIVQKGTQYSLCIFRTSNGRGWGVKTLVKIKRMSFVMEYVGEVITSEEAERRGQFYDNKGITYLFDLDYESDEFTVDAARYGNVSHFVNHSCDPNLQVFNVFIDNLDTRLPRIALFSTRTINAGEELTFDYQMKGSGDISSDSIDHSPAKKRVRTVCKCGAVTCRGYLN

PHF20(1) Tudor domain = molecular target: T3, PHF20(1) Tudor domain (Homo sapiens, UniProt Q9BVI0); test: Epigenetic binding assay, Tudor domain; details: read-out: % Inhibition of Control Specific Binding
T3 construct: Crystal structures of the Tudor domains of human PHF20; Eurofins CEREP (France), contract laboratory
T3 sequence (Q9BVI0 4-69 limits assumed): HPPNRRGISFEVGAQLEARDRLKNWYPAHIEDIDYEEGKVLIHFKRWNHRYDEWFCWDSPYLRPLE

SUV4-20H2 (h) = SUV4-20H2 (h) (Homo sapiens, UniProt Q86Y97); test: Epigenetic enzyme assay, Methyltransferases (MTs); type: biochemical; details: for inhibition at 10 µM: read-out: % Inhibition of Control Values
Chain of SUV4-20H2 (h) (Q86Y97 whole entry): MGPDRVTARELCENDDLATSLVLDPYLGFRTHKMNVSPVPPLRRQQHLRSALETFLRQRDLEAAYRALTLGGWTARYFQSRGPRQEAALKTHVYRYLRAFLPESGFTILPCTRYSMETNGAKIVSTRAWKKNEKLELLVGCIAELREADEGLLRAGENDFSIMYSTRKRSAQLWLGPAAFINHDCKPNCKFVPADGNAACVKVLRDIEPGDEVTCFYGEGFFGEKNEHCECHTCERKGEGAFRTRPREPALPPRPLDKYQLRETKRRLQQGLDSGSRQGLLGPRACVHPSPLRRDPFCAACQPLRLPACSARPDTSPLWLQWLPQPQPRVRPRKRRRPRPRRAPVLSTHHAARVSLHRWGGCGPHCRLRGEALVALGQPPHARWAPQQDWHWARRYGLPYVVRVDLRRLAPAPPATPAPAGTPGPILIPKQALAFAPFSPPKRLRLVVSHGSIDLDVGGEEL

[2] = molecular target: T4, Epidermal Growth Factor (EGF) (Homo sapiens, UniProt P00533); test: Epidermal Growth Factor (EGF) radio ligand binding; details: assay year 2015, read-out: % Control Response
T4 construct: Human A431 cells; endogenous in cells; host or cells: A431 cells
T4 sequence (P00533 25-1210): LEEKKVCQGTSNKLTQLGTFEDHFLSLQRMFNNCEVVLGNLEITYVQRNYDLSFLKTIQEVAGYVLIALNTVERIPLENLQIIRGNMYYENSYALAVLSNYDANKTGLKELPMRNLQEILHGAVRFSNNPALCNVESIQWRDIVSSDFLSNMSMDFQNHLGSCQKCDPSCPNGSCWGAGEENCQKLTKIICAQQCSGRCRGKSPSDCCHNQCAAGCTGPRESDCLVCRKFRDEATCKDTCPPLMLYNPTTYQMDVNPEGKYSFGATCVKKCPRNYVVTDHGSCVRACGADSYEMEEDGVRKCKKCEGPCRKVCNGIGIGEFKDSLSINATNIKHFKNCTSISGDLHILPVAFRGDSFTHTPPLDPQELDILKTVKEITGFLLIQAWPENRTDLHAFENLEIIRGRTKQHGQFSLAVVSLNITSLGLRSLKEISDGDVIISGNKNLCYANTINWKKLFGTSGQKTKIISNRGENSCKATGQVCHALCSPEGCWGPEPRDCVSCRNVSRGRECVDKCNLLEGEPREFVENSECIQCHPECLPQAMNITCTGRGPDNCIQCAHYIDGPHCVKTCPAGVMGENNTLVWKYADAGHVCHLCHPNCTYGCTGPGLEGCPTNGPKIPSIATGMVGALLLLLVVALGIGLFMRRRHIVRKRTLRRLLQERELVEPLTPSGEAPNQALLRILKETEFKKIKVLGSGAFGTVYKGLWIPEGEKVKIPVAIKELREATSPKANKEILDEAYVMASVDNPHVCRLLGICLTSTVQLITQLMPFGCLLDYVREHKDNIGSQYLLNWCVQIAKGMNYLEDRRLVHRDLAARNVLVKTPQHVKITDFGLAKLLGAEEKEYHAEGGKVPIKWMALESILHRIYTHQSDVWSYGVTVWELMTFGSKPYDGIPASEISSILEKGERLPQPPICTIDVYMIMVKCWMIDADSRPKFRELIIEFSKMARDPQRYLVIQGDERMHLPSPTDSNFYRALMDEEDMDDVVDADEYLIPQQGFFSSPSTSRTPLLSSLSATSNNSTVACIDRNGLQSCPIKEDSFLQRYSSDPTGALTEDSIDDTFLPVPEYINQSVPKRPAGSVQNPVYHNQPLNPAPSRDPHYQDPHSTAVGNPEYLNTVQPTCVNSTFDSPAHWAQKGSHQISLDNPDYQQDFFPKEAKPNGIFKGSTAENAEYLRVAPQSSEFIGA
Method: as §1

H3K9 me2 = test: Cell-based detection methyl modifications; details: read-out: % Inhibition of Control Values
pCAF(h) = pCAF(h) (Homo sapiens, UniProt Q92831); test: Epigenetic enzyme assay, Histone acetyltransferases (HATs); type: biochemical; details: read-out: % Inhibition of Control Values
Chain of pCAF(h) (Q92831 whole entry): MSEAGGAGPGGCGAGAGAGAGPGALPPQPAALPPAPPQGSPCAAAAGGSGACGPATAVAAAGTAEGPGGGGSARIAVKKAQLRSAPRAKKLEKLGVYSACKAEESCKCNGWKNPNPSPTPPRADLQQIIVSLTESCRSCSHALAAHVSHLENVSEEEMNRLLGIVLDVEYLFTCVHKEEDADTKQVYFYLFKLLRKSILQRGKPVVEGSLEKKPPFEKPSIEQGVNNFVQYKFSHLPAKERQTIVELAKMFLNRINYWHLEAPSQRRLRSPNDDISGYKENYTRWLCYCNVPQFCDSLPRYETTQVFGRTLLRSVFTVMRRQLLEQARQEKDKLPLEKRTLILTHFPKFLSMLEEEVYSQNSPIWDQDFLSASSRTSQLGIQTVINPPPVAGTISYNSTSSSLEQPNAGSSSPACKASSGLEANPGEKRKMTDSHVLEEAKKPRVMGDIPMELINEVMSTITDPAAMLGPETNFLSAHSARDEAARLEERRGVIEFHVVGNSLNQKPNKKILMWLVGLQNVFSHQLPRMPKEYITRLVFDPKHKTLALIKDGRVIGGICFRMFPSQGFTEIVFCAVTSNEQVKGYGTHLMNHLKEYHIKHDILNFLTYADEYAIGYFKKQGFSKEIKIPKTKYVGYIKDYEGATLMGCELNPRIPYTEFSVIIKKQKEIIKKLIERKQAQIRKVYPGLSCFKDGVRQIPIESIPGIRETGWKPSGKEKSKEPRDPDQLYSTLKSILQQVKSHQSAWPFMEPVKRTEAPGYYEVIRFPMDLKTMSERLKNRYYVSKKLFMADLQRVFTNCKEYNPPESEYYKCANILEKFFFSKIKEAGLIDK

BAP1 (h) = molecular target: T5, BAP1 (h) (Homo sapiens, UniProt Q92560); test: Epigenetic enzyme assay, Ubiquitin modifying enzymes; type: biochemical; details: 10 μM; read-out: % Inhibition of Control Values
T5 sequence (Q92560 1-729): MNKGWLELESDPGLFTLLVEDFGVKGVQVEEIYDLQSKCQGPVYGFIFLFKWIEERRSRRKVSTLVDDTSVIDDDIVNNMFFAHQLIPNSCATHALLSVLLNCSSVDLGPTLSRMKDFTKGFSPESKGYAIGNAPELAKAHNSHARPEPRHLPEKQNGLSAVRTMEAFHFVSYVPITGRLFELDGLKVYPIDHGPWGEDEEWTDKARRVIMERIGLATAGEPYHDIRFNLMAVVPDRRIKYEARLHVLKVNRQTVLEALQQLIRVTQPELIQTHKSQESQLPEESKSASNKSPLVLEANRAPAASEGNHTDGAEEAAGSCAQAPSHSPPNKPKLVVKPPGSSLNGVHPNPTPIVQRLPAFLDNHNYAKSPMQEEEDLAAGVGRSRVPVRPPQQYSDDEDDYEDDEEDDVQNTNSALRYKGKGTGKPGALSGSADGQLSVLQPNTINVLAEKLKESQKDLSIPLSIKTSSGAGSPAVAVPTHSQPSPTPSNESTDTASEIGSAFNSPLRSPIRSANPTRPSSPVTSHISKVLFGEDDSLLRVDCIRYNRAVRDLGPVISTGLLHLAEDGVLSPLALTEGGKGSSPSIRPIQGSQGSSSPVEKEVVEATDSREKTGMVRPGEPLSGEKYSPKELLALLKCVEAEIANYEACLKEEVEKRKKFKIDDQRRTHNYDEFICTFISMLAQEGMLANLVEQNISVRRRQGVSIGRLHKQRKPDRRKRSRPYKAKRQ

| SMILES | inhibition at 10 µM [1] [%] | remaining activity at 10 µM (Phospholipase sPLA2-V) [%] | inhibition at 10 µM (MYST3(h)) [%] | Resp Av % (NF-κB; Antagonist, Conc 0.001 μM) [%] | Resp Av % (NF-κB; Antagonist, Conc 0.01 μM) [%] | Resp Av % (NF-κB; Antagonist, Conc 0.1 μM) [%] | Resp Av % (NF-κB; Antagonist, Conc 1 μM) [%] | Resp Av % (NF-κB; Antagonist, Conc 10 μM) [%] | IC50 (NF-κB; Homo sapiens, Antagonist) [µM] | IC50 (NF-κB; Homo sapiens, transcription response NF-κB) [µM] | IC50 (NF-κB; transcription response NF-κB) [µM] | inhibition at 10 µM (SUV39H2 (h)) [%] | inhibition at 10 µM (PHF20(1) Tudor domain) [%] | inhibition at 10 µM (SUV4-20H2 (h)) [%] | remaining activity at 10 µM [2] [%] | inhibition at 10 µM (H3K9 me2) [%] | inhibition at 10 µM (pCAF(h)) [%] | inhibition at 10 µM (BAP1 (h)) [%] | IC50 (SUV39H2 (h); read-out: Reference IC50) [µM] | IC50 (SUV4-20H2 (h); read-out: Reference IC50) [µM] |
| --- | --- | --- | --- | --- | --- | --- | --- | --- | --- | --- | --- | --- | --- | --- | --- | --- | --- | --- | --- | --- |
| CC(C)=CCC[C@H](CO)[C@@H]1CC[C@@H](C)c2c1cc(C)c(O)c2O [Compound 1, 7,8,18-trihydroxyserrulat-14-ene] | 2 | 4 | 18 | −25 | −5 | 0 | 17 | 103 | 1.4 | 1.36 | 0.69 | -8 | 7 | 11 | -8 | 1 | -25 | 1 | – | – |
| CC(C)=CCC[C@@H]1C(O)Oc2c(C)cc(O)c3c2[C@H]1CC[C@H]3C (stereo partly shown) [Compound 2, 5,18-epoxyserrulat-14-en-8,18-diol] | 11 | 3 | 11 | −7 | −7 | −3 | 10 | 34 | > 10 | – | – | -16 | 2 | 20 | -9 | 11 | -26 | -9 | – | – |
| Nc1ncnc2c1ncn2[C@@H]1O[C@H](CSCC[C@H](N)C(=O)O)[C@@H](O)[C@H]1O [SAH] | – | – | – | – | – | – | – | – | – | – | – | – | – | – | – | – | – | – | 24 | 4.7 |
| CC(C)=CCC[C@@H]1COc2c(C)cc(O)c3c2[C@H]1CC[C@H]3C [Compound 3, 5,18-epoxy-8-hydroxyserrulat-14-ene] | 7 | 0 | 3 | −16 | −11 | −7 | 1 | −19 | > 10 | – | – | 14 | 2 | -45 | 4 | 20 | -20 | 24 | – | – |
